Assay results from patent US11382328B2, “Rapid drug discovery methods for pathogen inactivation” (priority 2019, dated 2022).
Where “and” joins values, the source holds several entries; their conditions need not be identical. Equal values may be shown once. Where a name gives a salt, the structure may show the parent alone.

System: E. coli strain W3110
Test: Synergy assays: Biolog chemical sensitivity panels with Group IB metal, coefficient of drug interaction (CDI) from relative growth
Assay type: cell-based
Conditions: for CDI (coefficient of drug interaction), gold + biocide: Gold (μM); for CDI (coefficient of drug interaction), copper mixed with biocide: Copper (mM) section; for CDI (coefficient of drug interaction), copper mixed with biocide / CDI (coefficient of drug interaction), silver + biocide: 4th of four biocide concentrations
[1] = Copper (mM), 1st of 3 copper concentrations (head line not shown), biocide concentration 2 of 4, E. coli
[2] = Copper (mM), 1st of 3 copper concentrations (head line not shown), biocide concentration 3 of 4, E. coli
[3] = Copper (mM), 1st of 3 copper concentrations (head line not shown), biocide concentration 4 of 4, E. coli
[4] = Copper (mM), 2nd of 3 copper concentrations (head line not shown), biocide concentration 1 of 4, E. coli
[5] = Copper (mM), 2nd of 3 copper concentrations (head line not shown), biocide concentration 2 of 4, E. coli
[6] = Copper (mM), 2nd of 3 copper concentrations (head line not shown), biocide concentration 3 of 4, E. coli
[7] = Copper (mM), 2nd of 3 copper concentrations (head line not shown), biocide concentration 4 of 4, E. coli
[8] = Copper (mM), 3rd of 3 copper concentrations (head line not shown), biocide concentration 1 of 4, E. coli
[9] = Copper (mM), 3rd of 3 copper concentrations (head line not shown), biocide concentration 3 of 4, E. coli
[10] = Copper (mM), 3rd of 3 copper concentrations (head line not shown), biocide concentration 4 of 4, E. coli
[11] = first of 3 gold concentrations, biocide concentration 1 of 4
[12] = first of 3 gold concentrations, biocide concentration 2 of 4
[13] = first of 3 gold concentrations, biocide concentration 3 of 4
[14] = first of 3 gold concentrations, biocide concentration 4 of 4
[15] = second of 3 gold concentrations, biocide concentration 1 of 4
[16] = second of 3 gold concentrations, biocide concentration 2 of 4
[17] = second of 3 gold concentrations, biocide concentration 3 of 4
[18] = second of 3 gold concentrations, biocide concentration 4 of 4
[19] = third of 3 gold concentrations, biocide concentration 1 of 4
[20] = third of 3 gold concentrations, biocide concentration 2 of 4
[21] = third of 3 gold concentrations, biocide concentration 3 of 4
[22] = third of 3 gold concentrations, biocide concentration 4 of 4
[23] = Silver 0.5 μM, biocide concentration 1 of 4
[24] = Silver 0.5 μM, biocide concentration 2 of 4
[25] = Silver 0.5 μM, biocide concentration 3 of 4
[26] = Silver 0.5 μM, biocide concentration 4 of 4
[27] = Silver 1.0 μM, biocide concentration 1 of 4
[28] = Silver 1.0 μM, biocide concentration 2 of 4
[29] = Silver 1.0 μM, biocide concentration 3 of 4
[30] = Silver 1.0 μM, biocide concentration 4 of 4
[31] = Silver 5.0 μM, biocide concentration 1 of 4
[32] = Silver 5.0 μM, biocide concentration 2 of 4
[33] = Silver 5.0 μM, biocide concentration 3 of 4
[34] = Silver 5.0 μM, biocide concentration 4 of 4
[35] = Copper (mM), 1st of 3 copper concentrations (head line not shown), biocide concentration 1 of 4, E. coli
[36] = Copper (mM), 3rd of 3 copper concentrations (head line not shown), biocide concentration 2 of 4, E. coli
[37] = Gold section of Table 5, first of three gold concentrations (μM, value not given), biocide concentration 4 of 4
[38] = Gold section of Table 5, second of three gold concentrations (μM, value not given), biocide concentration 4 of 4
[39] = Gold section of Table 5, third of three gold concentrations (μM, value not given), biocide concentration 4 of 4
[40] = 1st of 3 copper concentrations (value not shown)
[41] = 3rd of 3 copper concentrations (value not shown)

Row | Molecule | CDI (coefficient of drug interaction) [1] | CDI (coefficient of drug interaction) [2] | CDI (coefficient of drug interaction) [3] | CDI (coefficient of drug interaction) [4] | CDI (coefficient of drug interaction) [5] | CDI (coefficient of drug interaction) [6] | CDI (coefficient of drug interaction) [7] | CDI (coefficient of drug interaction) [8] | CDI (coefficient of drug interaction) [9] | CDI (coefficient of drug interaction) [10] | CDI (coefficient of drug interaction), gold + biocide [14] | CDI (coefficient of drug interaction), gold + biocide [18] | CDI (coefficient of drug interaction), gold + biocide [22] | CDI [23] | CDI [26] | CDI [27] | CDI [29] | CDI [30] | CDI [33] | CDI [34] | also measured
1 | CSCCC(N)C(=O)NO (racemic) [D,L-methionine hydroxamate] | 1.19 | 1.02 | 0.91 | 0.84 | 0.95 | 2.26 | 3.51 | 0.98 | 1.51 | 1.54 | Tox | Tox | Tox | 0.88 | Tox | 1.04 | Tox | Tox | Tox | Tox | CDI (coefficient of drug interaction), gold + biocide [11]: 1.08; CDI (coefficient of drug interaction), gold + biocide [12]: 1.10; CDI (coefficient of drug interaction), gold + biocide [13]: 1.06; CDI (coefficient of drug interaction), gold + biocide [15]: 1.03; CDI (coefficient of drug interaction), gold + biocide [16]: 1.04; CDI (coefficient of drug interaction), gold + biocide [17]: 1.08; CDI (coefficient of drug interaction), gold + biocide [19]: 0.92; CDI (coefficient of drug interaction), gold + biocide [20]: 0.96; CDI (coefficient of drug interaction), gold + biocide [21]: 0.93; CDI [24]: 1.04; CDI [25]: Tox; CDI [28]: 0.99; CDI [31]: 0.71; CDI [32]: 0.42
2 | CC1(C)S[C@@H]2[C@H](NC(=O)[C@H](NC(=O)N3CCNC3=O)c3ccccc3)C(=O)N2[C@H]1C(=O)O [aziocillin] | 1.05 | 1.08 | Tox | 0.94 | 0.90 | 0.97 | Tox | 0.78 | 0.61 | Tox | 0.64 | 0.64 | 0.47 | 0.90 | Tox | 0.97 | 1.14 | Tox | 0.70 | Tox | CDI (coefficient of drug interaction) [35]: 0.97; CDI (coefficient of drug interaction) [36]: 0.70; CDI (coefficient of drug interaction), gold + biocide [11]: 0.92; CDI (coefficient of drug interaction), gold + biocide [12]: 1.01; CDI (coefficient of drug interaction), gold + biocide [13]: 0.94; CDI (coefficient of drug interaction), gold + biocide [15]: 1.05; CDI (coefficient of drug interaction), gold + biocide [16]: 1.09; CDI (coefficient of drug interaction), gold + biocide [17]: 0.89; CDI (coefficient of drug interaction), gold + biocide [19]: 0.94; CDI (coefficient of drug interaction), gold + biocide [20]: 0.93; CDI (coefficient of drug interaction), gold + biocide [21]: 0.93; CDI [24]: 1.07; CDI [28]: 0.90; CDI [31]: 1.03; CDI [32]: 1.08
3 | CN(CC[C@H](N)CC(=O)N[C@H]1C=C[C@H](n2ccc(N)nc2=O)O[C@@H]1C(=O)O)C(=N)N [blasticidin S] | 1.14 | 0.95 | Tox | 0.90 | 0.96 | Tox | Tox | 0.71 | 0.49 | Tox |  |  |  | 1.04 | Tox | 1.01 | Tox | Tox | Tox | Tox | CDI (coefficient of drug interaction) [35]: 1.05; CDI (coefficient of drug interaction) [36]: 0.65; CDI (coefficient of drug interaction) (Gold section of Table 5, first of three gold concentrations (μM, value not given), biocide concentration 1 of 4): 1.05; CDI (coefficient of drug interaction) (Gold section of Table 5, first of three gold concentrations (μM, value not given), biocide concentration 2 of 4): 0.95; CDI (coefficient of drug interaction) (Gold section of Table 5, first of three gold concentrations (μM, value not given), biocide concentration 3 of 4): 0.97; CDI (coefficient of drug interaction) [37]: Tox; CDI (coefficient of drug interaction) (Gold section of Table 5, second of three gold concentrations (μM, value not given), biocide concentration 1 of 4): 1.06; CDI (coefficient of drug interaction) (Gold section of Table 5, second of three gold concentrations (μM, value not given), biocide concentration 2 of 4): 1.08; CDI (coefficient of drug interaction) (Gold section of Table 5, second of three gold concentrations (μM, value not given), biocide concentration 3 of 4): 1.11; CDI (coefficient of drug interaction) [38]: Tox; CDI (coefficient of drug interaction) (Gold section of Table 5, third of three gold concentrations (μM, value not given), biocide concentration 1 of 4): 1.09; CDI (coefficient of drug interaction) (Gold section of Table 5, third of three gold concentrations (μM, value not given), biocide concentration 2 of 4): 1.06; CDI (coefficient of drug interaction) (Gold section of Table 5, third of three gold concentrations (μM, value not given), biocide concentration 3 of 4): 1.11; CDI (coefficient of drug interaction) [39]: Tox; CDI [24]: 0.90; CDI [25]: 0.92; CDI [28]: 1.02; CDI [31]: 1.52; CDI [32]: 1.40
4 | Nc1nc[nH]n1 [3-Amino-1,2,4-triazole] |  |  |  |  |  |  |  |  |  |  |  |  |  |  | Tox |  |  | Tox |  | Tox | CDI (coefficient of drug interaction), copper mixed with biocide [40]: Tox; CDI (coefficient of drug interaction), copper mixed with biocide [41]: Tox; CDI (coefficient of drug interaction) [37]: Tox; CDI (coefficient of drug interaction) [38]: Tox; CDI (coefficient of drug interaction) [39]: Tox
5 | CCN1CCN(C(=O)N[C@@H](C(=O)N[C@@H]2C(=O)N3[C@@H]2SC(C)(C)[C@@H]3C(=O)O)c2ccccc2)C(=O)C1=O [piperacillin] |  |  |  |  |  |  |  |  |  |  | Tox | Tox | Tox |  | Tox |  | Tox | Tox | Tox | Tox | CDI [25]: Tox
6 | polymyxin B |  | Tox | Tox | 0.97 and 0.75 |  | Tox | Tox | 0.82 and 0.56 | Tox | Tox | Tox | Tox | Tox | 1.37 and 0.79 | Tox | 1.23 and 0.85 |  | Tox |  | Tox | CDI (coefficient of drug interaction) [35]: 0.90; CDI (coefficient of drug interaction), gold + biocide [11]: 1.07 and 0.97; CDI (coefficient of drug interaction), gold + biocide [15]: 1.10 and 0.99; CDI (coefficient of drug interaction), gold + biocide [19]: 1.00 and 0.92
7 | N=C(N)N [guanidine hydrochloride] |  |  |  |  |  |  |  |  |  |  |  |  |  |  |  |  |  |  |  |  | CDI (coefficient of drug interaction), copper mixed with biocide [40]: Tox; CDI (coefficient of drug interaction), copper mixed with biocide (2nd of 3 copper concentrations (value not shown)): Tox; CDI (coefficient of drug interaction), copper mixed with biocide [41]: Tox; CDI (coefficient of drug interaction) [37]: Tox; CDI (coefficient of drug interaction) [38]: Tox; CDI (coefficient of drug interaction) [39]: Tox; CDI (coefficient of drug interaction), silver + biocide (Silver 0.5 μM, E. coli): Tox; CDI (coefficient of drug interaction), silver + biocide (Silver 1.0 μM, E. coli): Tox; CDI (coefficient of drug interaction), silver + biocide (Silver 5.0 μM, E. coli): Tox
